Source: patent publication US6737383B1, “Herbicidal oxadiazolidines” (priority 1999, dated 2004)

What was measured:
bedstraw = assay: Test B pre/postemergence bedstraw; assay type: in vivo, Galium aparine; conditions: scale of 0 to 10 where 0 is no effect and 10 is complete control
Outline: (§1)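 Test chemicals in a non-phytotoxic solvent mixture with surfactant were sprayed preemergence onto planted seeds and postemergence onto plants 2 to 18 cm tall (1- to 4-leaf stage). After twelve to sixteen days in a greenhouse, injury was visually rated against untreated controls from 0 (no effect) to 10 (complete control).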

blackgrass = assay: Test B pre/postemergence blackgrass; assay type: in vivo, Alopecurus myosuroides; conditions: scale of 0 to 10 where 0 is no effect and 10 is complete control
Outline: as §1

surinam grass = assay: Test B pre/postemergence surinam grass; assay type: in vivo, Brachiaria decumbens; conditions: scale of 0 to 10 where 0 is no effect and 10 is complete control
Outline: as §1

cocklebur = assay: Test B pre/postemergence cocklebur; assay type: in vivo, Xanthium strumarium
Outline: as §1

crabgrass = assay: Test B pre/postemergence crabgrass; assay type: in vivo, Digitaria sanguinalis
Outline: as §1

giant foxtail = assay: Test B pre/postemergence giant foxtail; assay type: in vivo, Setaria faberii
Outline: as §1

morningglory = assay: Test B pre/postemergence morningglory; assay type: in vivo, Ipomoea hederacea
Outline: as §1

pigweed = assay: Test B pre/postemergence pigweed; assay type: in vivo, Amaranthus retroflexus; conditions: scale of 0 to 10 where 0 is no effect and 10 is complete control
Outline: as §1

sugar beet = assay: Test B pre/postemergence sugar beet; assay type: in vivo, Beta vulgaris; conditions: scale of 0 to 10 where 0 is no effect and 10 is complete control
Outline: as §1

velvetleaf = assay: Test B pre/postemergence velvetleaf; assay type: in vivo, Abutilon theophrasti
Outline: as §1

wheat = assay: Test B pre/postemergence wheat; assay type: in vivo, Triticum aestivum; conditions: scale of 0 to 10 where 0 is no effect and 10 is complete control
Outline: as §1

wild oat = assay: Test B pre/postemergence wild oat; assay type: in vivo, Avena fatua; conditions: scale of 0 to 10 where 0 is no effect and 10 is complete control
Outline: as §1

purple nutsedge = assay: Test B pre/postemergence purple nutsedge; assay type: in vivo, Cyperus rotundus
Outline: as §1

rice = assay: Test B flood test rice; assay type: in vivo, Oryza sativa
Outline: (§2)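 Each value is a visual injury score relative to controls, with 10 meaning complete control and 0 no effect. Evaluation took place twelve to sixteen days after the 2-leaf-stage plants were treated and kept in the greenhouse.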

duck salad = assay: Test B flood test duck salad; assay type: in vivo, Heteranthera limosa
Outline: as §2

bamyardgrass = assay: Test B flood test barnyardgrass; assay type: in vivo, Echinochloa crus-galli
Outline: as §2

[1] = Preemergence, Rate 62 g/ha, scale of 0 to 10 where 0 is no effect and 10 is complete control
[2] = Preemergence, Rate 250 g/ha, scale of 0 to 10 where 0 is no effect and 10 is complete control
[3] = Preemergence, Rate 500 g/ha, scale of 0 to 10 where 0 is no effect and 10 is complete control
[4] = Rate 125 g/ha, Postemergence, scale of 0 to 10 where 0 is no effect and 10 is complete control
[5] = Rate 125 g/ha, Preemergence, scale of 0 to 10 where 0 is no effect and 10 is complete control
[6] = Rate 250 g/ha, Postemergence, scale of 0 to 10 where 0 is no effect and 10 is complete control
[7] = Rate 500 g/ha, Postemergence, scale 0 to 10, 0 no effect, 10 complete control
[8] = Rate 62 g/ha, headed Pre-emergence (flood test species), scale 0 to 10 (0 no effect, 10 complete control)
[9] = Rate 125 g/ha, Pre-emergence, flood test species, scale 0 to 10 where 0 is no effect and 10 is complete control
[10] = Rate 250 g/ha, Pre-emergence, flood-test species, scale 0 to 10, 0 is no effect, 10 is complete control
[11] = Rate 500 g/ha, Pre-emergence, flood test species, scale 0 to 10 (0 no effect, 10 complete control)

With `Cc1ccccc1-n1c(=O)on(C(=O)N(c2ccc(Oc3ccccc3)cc2)C(C)C)c1=O` [Compound 268] the “Bedstraw plant response rating” value (bedstraw; Preemergence, Rate 62 g/ha) was 0, the “Bedstraw plant response rating” value (bedstraw; Preemergence, Rate 250 g/ha) was 0 and the “Plant response rating, Bedstraw” value (bedstraw; Preemergence, Rate 500 g/ha) was 0. The “Bedstraw plant response rating” value (bedstraw; Rate 62 g/ha, Postemergence) was 0, the “Bedstraw plant response rating” value (bedstraw; Rate 125 g/ha, Postemergence) was 0 and the “Bedstraw plant response rating” value (bedstraw; Rate 125 g/ha, Preemergence) was 0. The “Plant response rating, Bedstraw” value (bedstraw; Rate 250 g/ha, Postemergence) was 0, the “Blackgrass plant response rating” value (blackgrass; Preemergence, Rate 62 g/ha) was 0 and the “Blackgrass plant response rating” value (blackgrass; Preemergence, Rate 250 g/ha) was 0. The “Plant response rating, Blackgrass” value (blackgrass; Preemergence, Rate 500 g/ha) was 0, the “Blackgrass plant response rating” value (blackgrass; Rate 62 g/ha, Postemergence) was 0 and the “Blackgrass plant response rating” value (blackgrass; Rate 125 g/ha, Postemergence) was 0. For the same compound, the “Blackgrass plant response rating” value (blackgrass; Rate 125 g/ha, Preemergence) was 0, the “Plant response rating, Blackgrass” value (blackgrass; Rate 250 g/ha, Postemergence) was 0 and the “B. signalgrass plant response rating” value (surinam grass; Preemergence, Rate 62 g/ha) was 0. The “B. signalgrass plant response rating” value (surinam grass; Preemergence, Rate 250 g/ha) was 0, the “Plant response rating, B. signalgrass” value (surinam grass; Preemergence, Rate 500 g/ha) was 0 and the “B. signalgrass plant response rating” value (surinam grass; Rate 62 g/ha, Postemergence) was 0. For the same compound, the “B. signalgrass plant response rating” value (surinam grass; Rate 125 g/ha, Postemergence) was 0, the “B. signalgrass plant response rating” value (surinam grass; Rate 125 g/ha, Preemergence) was 0 and the “Plant response rating, B. signalgrass” value (surinam grass; Rate 250 g/ha, Postemergence) was 0. For the same compound, the “Cocklebur plant response rating” value (cocklebur; [1]) was 0, the “Cocklebur plant response rating” value (cocklebur; [2]) was 0 and the “Plant response rating, Cocklebur” value (cocklebur; [3]) was 0. For the same compound, the “Cocklebur plant response rating” value (cocklebur; Rate 62 g/ha, Postemergence, scale of 0 to 10 where 0 is no effect and 10 is complete control) was 0, the “Cocklebur plant response rating” value (cocklebur; [4]) was 0 and the “Cocklebur plant response rating” value (cocklebur; [5]) was 0. For the same compound, the “Plant response rating, Cocklebur” value (cocklebur; [6]) was 0, the “Cocklebur plant response rating” value (cocklebur; [7]) was 0 and the “Crabgrass plant response rating” value (crabgrass; [1]) was 0. The “Crabgrass plant response rating” value (crabgrass; [2]) was 0, the “Plant response rating, Crabgrass” value (crabgrass; [3]) was 0 and the “Crabgrass plant response rating” value (crabgrass; [4]) was 0. The “Crabgrass plant response rating” value (crabgrass; [5]) was 0, the “Plant response rating, Crabgrass” value (crabgrass; [6]) was 0 and the “Crabgrass plant response rating” value (crabgrass; [7]) was 0. The “Giant foxtail plant response rating” value (giant foxtail; [1]) was 0, the “Giant foxtail plant response rating” value (giant foxtail; [2]) was 0 and the “Plant response rating, Giant foxtail” value (giant foxtail; [3]) was 0. The “Giant foxtail plant response rating” value (giant foxtail; [4]) was 0, the “Giant foxtail plant response rating” value (giant foxtail; [5]) was 0 and the “Plant response rating, Giant foxtail” value (giant foxtail; [6]) was 0. For the same compound, the “Giant foxtail plant response rating” value (giant foxtail; [7]) was 0, the “Morningglory plant response rating” value (morningglory; [1]) was 0 and the “Morningglory plant response rating” value (morningglory; [2]) was 0. For the same compound, the “Plant response rating, Morningglory” value (morningglory; [3]) was 0, the “Morningglory plant response rating” value (morningglory; [4]) was 2 and the “Morningglory plant response rating” value (morningglory; [5]) was 0. For the same compound, the “Plant response rating, Morningglory” value (morningglory; [6]) was 2, the “Morningglory plant response rating” value (morningglory; [7]) was 7 and the “Redroot pigweed plant response rating” value (pigweed; Preemergence, Rate 62 g/ha) was 0. The “Redroot pigweed plant response rating” value (pigweed; Preemergence, Rate 250 g/ha) was 0, the “Plant response rating, Redroot pigweed” value (pigweed; Preemergence, Rate 500 g/ha) was 0 and the “Redroot pigweed plant response rating” value (pigweed; Rate 125 g/ha, Postemergence) was 0. The “Redroot pigweed plant response rating” value (pigweed; Rate 125 g/ha, Preemergence) was 0, the “Plant response rating, Redroot pigweed” value (pigweed; Rate 250 g/ha, Postemergence) was 0 and the “Sugarbeets plant response rating” value (sugar beet; Preemergence, Rate 62 g/ha) was 0. The “Sugarbeets plant response rating” value (sugar beet; Preemergence, Rate 250 g/ha) was 0, the “Plant response rating, Sugarbeets” value (sugar beet; Preemergence, Rate 500 g/ha) was 0 and the “Sugarbeets plant response rating” value (sugar beet; Rate 125 g/ha, Postemergence) was 0. The “Sugarbeets plant response rating” value (sugar beet; Rate 125 g/ha, Preemergence) was 0, the “Plant response rating, Sugarbeets” value (sugar beet; Rate 250 g/ha, Postemergence) was 0 and the “Velvetleaf plant response rating” value (velvetleaf; [1]) was 0. For the same compound, the “Velvetleaf plant response rating” value (velvetleaf; [2]) was 0, the “Plant response rating, Velvetleaf” value (velvetleaf; [3]) was 0 and the “Velvetleaf plant response rating” value (velvetleaf; [4]) was 0. For the same compound, the “Velvetleaf plant response rating” value (velvetleaf; [5]) was 0, the “Plant response rating, Velvetleaf” value (velvetleaf; [6]) was 0 and the “Velvetleaf plant response rating” value (velvetleaf; [7]) was 0. For the same compound, the “Wheat plant response rating” value (wheat; Preemergence, Rate 62 g/ha) was 0, the “Wheat plant response rating” value (wheat; Preemergence, Rate 250 g/ha) was 0 and the “Plant response rating, Wheat” value (wheat; Preemergence, Rate 500 g/ha) was 0. For the same compound, the “Wheat plant response rating” value (wheat; Rate 125 g/ha, Postemergence) was 0, the “Wheat plant response rating” value (wheat; Rate 125 g/ha, Preemergence) was 0 and the “Plant response rating, Wheat” value (wheat; Rate 250 g/ha, Postemergence) was 0. The “Wild oats plant response rating” value (wild oat; Preemergence, Rate 62 g/ha) was 0, the “Wild oats plant response rating” value (wild oat; Preemergence, Rate 250 g/ha) was 0 and the “Plant response rating, Wild oats” value (wild oat; Preemergence, Rate 500 g/ha) was 0. For the same compound, the “Wild oats plant response rating” value (wild oat; Rate 125 g/ha, Postemergence) was 0, the “Plant response rating, Wild oats” value (wild oat; Rate 250 g/ha, Postemergence) was 0 and the “Nutsedge plant response rating” value (purple nutsedge; [1]) was 0. For the same compound, the “Nutsedge plant response rating” value (purple nutsedge; [2]) was 0, the “Nutsedge plant response rating” value (purple nutsedge; [4]) was 0 and the “Nutsedge plant response rating” value (purple nutsedge; [5]) was 0. The “Plant response rating, Nutsedge” value (purple nutsedge; [6]) was 0, the “Nutsedge plant response rating” value (purple nutsedge; [7]) was 0 and the “Rice plant response rating” value (rice; [8]) was 0. For the same compound, the “Rice plant response rating” value (rice; [9]) was 0, the “Rice plant response rating” value (rice; [10]) was 0 and the “Rice plant response rating” value (rice; [11]) was 0. The “Ducksalad plant response rating” value (duck salad; [8]) was 0, the “Ducksalad plant response rating” value (duck salad; [9]) was 0 and the “Ducksalad plant response rating” value (duck salad; [10]) was 0. The “Ducksalad plant response rating” value (duck salad; [11]) was 0, the “Barnyardgrass plant response rating” value (bamyardgrass; [8]) was 0 and the “Barnyardgrass plant response rating” value (bamyardgrass; [9]) was 0. The “Barnyardgrass plant response rating” value (bamyardgrass; [10]) was 0 and the “Barnyardgrass plant response rating” value (bamyardgrass; [11]) was 0.
